Assay results: patent publication US11795169B2, “MAP4K4 inhibitors” (IMPERIAL COLLEGE INNOVATIONS LIMITED, priority 2017, dated 2023)
Values after ≈ are worked out from the molar mass of the structure shown. Where two headings read alike, the source gives them in different places.

Experiments:
[1] = test system: CorV.4U cardiomyocytes (hiPSC-CMs); assay: Protection of CorV.4U cardiomyocytes from H2O2 or menadione (luminescent cell viability assay, human cardiac troponin assay); assay type: cell-based; conditions: for EC50: Homo sapiens, Cardiomyocyte
Source text: To substantiate the hypothesis that pharmacological inhibition of MAP4K4 would confer resistance to cell death in human cardiomyocytes, cytoprotection was next assessed using hiPSC-CMs.

[2] = molecular target: human MAP4K4 kinase domain (Homo sapiens (Human), UniProt O95819); assay: MAP4K4 kinase activity, CisBio HTRF Transcreener ADP assay; assay type: biochemical
In short: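 Kinase activity followed by HTRF Transcreener ADP detection: enzyme-generated ADP competes with d2-labelled ADP for Eu3+-cryptate anti-ADP antibody, read ratiometrically at 665/620 nm. IC50 values reported as categories.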

[3] = Resistance to degradation in hepatocyte microsomes (Heps); assay type: in vitro ADME
Cyp 2C9 = Cyp 2C9 (Homo sapiens (Human), UniProt P11712); assay: Cyp Inhibition: 2C9; assay type: in vitro ADME
H9c2 cardiomyocytes = assay: Protection of H9c2 cardiomyocytes; assay type: cell-based; conditions: for EC50: Rattus norvegicus, H9c2
Cyp = Cyp Inhibition; assay type: in vitro ADME
[4] = Plasma protein binding (PPB); assay type: in vitro ADME; conditions: for fraction unbound: plasma
[5] = test system: mice undergoing experimental myocardial infarction; assay: Experimental myocardial infarction in mice (infarct size, TUNEL staining); assay type: in vivo; conditions: for In vivo efficacy (infarct size/area at risk), reduction: mice, experimental myocardial infarction; for reduction in infarct size as a proportion of the area at ischemic risk: 50 mg kg−1 twice by gavage
Description: To test if target validation and compound development in hiPSC-CMs might predict success in a whole-animal context, mice undergoing experimental myocardial infarction were treated with Ex-58 or the vehicle control (FIG. 9). […] Treatment was begun either 20 min prior to ischemia (FIG. 9D), or 1 h after reperfusion injury (FIG. 9E, F), the latter having greater relevance to potential clinical benefits.

Formulated solubility = assay type: physicochemical
[6] = Pharmacokinetics in mice (IV and oral)
KHS/MAP4K5 = KHS/MAP4K5 (Homo sapiens (Human), UniProt Q9Y4K4); assay: Kinase selectivity panel: KHS/MAP4K5; assay type: biochemical
Source text: (§1) Compounds of the present invention were screened for their inhibitory activity against MAP4K4, versus selected off-target hits found with early members of this chemical series. MAP4K4 kinase activity was monitored using the CisBio HTRF Transcreener ADP assay, acompetitive immunoassay with a reproducible Z′>0.6. In the detection step, endogenous ADP and d2-labeled ADP compete for binding an anti-ADP monoclonal antibody labelled with Eu^3+ cryptate. A ratiometric fluorescent read-out is used at 665 and 620 nm. […] Assays were run in Greiner low volume plates with a final reaction volume of 10 μl. The MAP4K4 inhibition data are provided in Table 33 below for selected compounds of the present invention. The data has been categorised based on the IC50 value of the compound as “A”, “B” or “C”.
(§2) The data in Table 34 also provides the fold selectivity of the two compounds in favour of MAP4K4 over the tested kinase. The fold selectivity is indicated in parenthesis.

[7] = mouse, in vivo, po, 50 mg/kg
VEGFR = assay: Kinase selectivity panel: VEGFR; assay type: biochemical
Description: (§3) In the detection step, endogenous ADP and d2-labeled ADP compete for binding an anti-ADP monoclonal antibody labelled with Eu^3+ cryptate. […] Assays were run in Greiner low volume plates with a final reaction volume of 10 μl.
(§4) The fold selectivity is indicated in parenthesis.

MLK1/MAP3K9 = MLK1/MAP3K9 (Homo sapiens (Human), UniProt P80192); assay: Kinase selectivity panel: MLK1/MAP3K9; assay type: biochemical
Source text: as §1, §2

NUAK = assay: Kinase selectivity panel: NUAK; assay type: biochemical
Description: as §3, §4

TNIK/MAP4K7 = TNIK/MAP4K7 (Homo sapiens (Human), UniProt Q9UKE5); assay: Kinase selectivity panel: TNIK/MAP4K7; assay type: biochemical
Source text: as §1, §2

MINK1/MAP4K6 = MINK1/MAP4K6 (Homo sapiens (Human), UniProt Q8N4C8); assay: Kinase selectivity panel: MINK1/MAP4K6; assay type: biochemical
Source text: as §1, §2

ABL1 = ABL1 (Homo sapiens (Human), UniProt P00519); assay: Kinase selectivity panel: ABL1; assay type: biochemical
Source text: as §1, §2

FLT3 = FLT3 (Homo sapiens (Human), UniProt P36888); assay: Kinase selectivity panel: FLT3; assay type: biochemical
Source text: as §1, §2

Aurora B = Aurora B (Homo sapiens (Human), UniProt Q96GD4); assay: Kinase selectivity panel: Aurora B; assay type: biochemical
Source text: as §1, §2

GSK3β = GSK3β (Homo sapiens (Human), UniProt P49841); assay: Kinase selectivity panel: GSK3β; assay type: biochemical
Source text: as §1, §2

MLK3/MAP3K11 = MLK3/MAP3K11 (Homo sapiens (Human), UniProt Q16584); assay: Kinase selectivity panel: MLK3/MAP3K11; assay type: biochemical
Source text: as §1, §2

hiPSC-CMs = assay: Calcium cycling in hiPSC-CMs (Fura-2) under menadione; assay type: cell-based, human
Description: Calcium cycling, a hallmark of the cardiac phenotype, likewise is susceptible to redox- and phosphorylation-dependent abnormalities. To determine whether MAP4K4 inhibition might preserve calcium homeostasis, hiPSC-CMs were assessed using the intracellular calcium indicator, Fura-2 (FIG. 8B). […] At 50 μM menadione, spontaneous calcium oscillations persisted in only 8 of 24 cultures (33.3%), versus 21 of 24 receiving 10 μM Ex-58 (87.5%; P<0.001).

CorV.4U hiPSC-CMs = assay: Mitochondrial function in CorV.4U hiPSC-CMs after acute oxidative stress (menadione); assay type: cell-based, human; conditions: 10 μM compound, 15 μM menadione for 2 h
Description: Key aspects of mitochondrial function were monitored in CorV.4U hiPSC-CMs after acute oxidative stress (15 μM menadione for 2 h), with or without Ex-58 (FIG. 8A).

GLK/MAP4K3 = GLK/MAP4K3 (Homo sapiens (Human), UniProt Q8IVH8); assay: Kinase selectivity panel: GLK/MAP4K3; assay type: biochemical
Source text: as §1, §2

GCK/MAP4K2 = GCK/MAP4K2 (Homo sapiens (Human), UniProt Q12851); assay: Kinase selectivity panel: GCK/MAP4K2; assay type: biochemical
Source text: as §1, §2

[8] = H2O2 as death trigger, read-out: Protection in human iPSC-derived ventricular cardiomyocytes, EC50 H202
[9] = human, read-out: Human PPB % (converted)
[10] = mouse, read-out: Mouse PPB % (converted)

human MAP4K4 kinase domain, sequence (O95819 25-289): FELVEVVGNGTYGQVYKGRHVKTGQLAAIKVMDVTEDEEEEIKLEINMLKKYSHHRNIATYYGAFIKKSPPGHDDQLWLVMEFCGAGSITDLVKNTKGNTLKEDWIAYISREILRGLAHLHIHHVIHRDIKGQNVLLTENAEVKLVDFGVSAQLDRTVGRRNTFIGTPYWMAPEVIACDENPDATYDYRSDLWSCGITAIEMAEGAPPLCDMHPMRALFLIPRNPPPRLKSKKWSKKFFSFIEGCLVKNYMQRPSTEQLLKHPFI
Aurora B, sequence (Q96GD4 whole entry): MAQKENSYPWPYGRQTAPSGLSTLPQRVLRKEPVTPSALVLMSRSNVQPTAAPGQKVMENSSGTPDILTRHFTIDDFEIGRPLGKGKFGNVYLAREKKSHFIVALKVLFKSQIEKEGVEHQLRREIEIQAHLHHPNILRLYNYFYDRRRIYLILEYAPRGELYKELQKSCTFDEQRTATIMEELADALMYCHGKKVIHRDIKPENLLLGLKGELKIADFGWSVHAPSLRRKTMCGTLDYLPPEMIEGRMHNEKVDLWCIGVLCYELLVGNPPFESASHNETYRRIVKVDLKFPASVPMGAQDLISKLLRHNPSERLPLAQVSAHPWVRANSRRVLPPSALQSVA
ABL1, sequence (P00519 whole entry, species assumed): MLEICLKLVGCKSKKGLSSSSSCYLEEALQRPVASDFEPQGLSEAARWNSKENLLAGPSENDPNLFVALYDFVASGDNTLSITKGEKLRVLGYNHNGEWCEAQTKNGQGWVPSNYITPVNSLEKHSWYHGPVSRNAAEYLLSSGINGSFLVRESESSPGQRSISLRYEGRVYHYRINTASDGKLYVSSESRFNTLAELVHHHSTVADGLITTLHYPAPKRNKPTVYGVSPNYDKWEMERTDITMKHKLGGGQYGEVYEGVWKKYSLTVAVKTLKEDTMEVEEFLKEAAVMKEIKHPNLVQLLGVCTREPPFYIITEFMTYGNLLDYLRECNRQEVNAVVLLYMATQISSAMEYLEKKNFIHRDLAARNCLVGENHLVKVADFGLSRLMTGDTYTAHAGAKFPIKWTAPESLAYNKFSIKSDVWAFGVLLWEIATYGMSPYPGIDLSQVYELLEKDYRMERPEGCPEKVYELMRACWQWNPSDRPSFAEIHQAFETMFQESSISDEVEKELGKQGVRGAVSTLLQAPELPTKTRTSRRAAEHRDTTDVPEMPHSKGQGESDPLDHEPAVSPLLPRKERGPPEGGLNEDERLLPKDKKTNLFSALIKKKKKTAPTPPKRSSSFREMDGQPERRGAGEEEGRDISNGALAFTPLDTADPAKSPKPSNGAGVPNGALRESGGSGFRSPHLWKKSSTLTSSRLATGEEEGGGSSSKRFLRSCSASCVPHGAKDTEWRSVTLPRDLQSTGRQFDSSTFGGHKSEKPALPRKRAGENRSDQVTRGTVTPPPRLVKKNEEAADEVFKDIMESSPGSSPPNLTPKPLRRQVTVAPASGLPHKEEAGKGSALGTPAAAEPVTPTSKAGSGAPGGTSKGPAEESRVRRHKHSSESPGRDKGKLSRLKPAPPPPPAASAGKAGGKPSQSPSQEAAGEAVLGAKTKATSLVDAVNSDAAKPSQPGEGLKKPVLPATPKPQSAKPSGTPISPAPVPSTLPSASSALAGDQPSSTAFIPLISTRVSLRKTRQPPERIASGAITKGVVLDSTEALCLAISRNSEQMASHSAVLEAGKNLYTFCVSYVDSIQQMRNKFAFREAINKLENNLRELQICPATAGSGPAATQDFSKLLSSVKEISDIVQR
GCK/MAP4K2, sequence (Q12851 whole entry): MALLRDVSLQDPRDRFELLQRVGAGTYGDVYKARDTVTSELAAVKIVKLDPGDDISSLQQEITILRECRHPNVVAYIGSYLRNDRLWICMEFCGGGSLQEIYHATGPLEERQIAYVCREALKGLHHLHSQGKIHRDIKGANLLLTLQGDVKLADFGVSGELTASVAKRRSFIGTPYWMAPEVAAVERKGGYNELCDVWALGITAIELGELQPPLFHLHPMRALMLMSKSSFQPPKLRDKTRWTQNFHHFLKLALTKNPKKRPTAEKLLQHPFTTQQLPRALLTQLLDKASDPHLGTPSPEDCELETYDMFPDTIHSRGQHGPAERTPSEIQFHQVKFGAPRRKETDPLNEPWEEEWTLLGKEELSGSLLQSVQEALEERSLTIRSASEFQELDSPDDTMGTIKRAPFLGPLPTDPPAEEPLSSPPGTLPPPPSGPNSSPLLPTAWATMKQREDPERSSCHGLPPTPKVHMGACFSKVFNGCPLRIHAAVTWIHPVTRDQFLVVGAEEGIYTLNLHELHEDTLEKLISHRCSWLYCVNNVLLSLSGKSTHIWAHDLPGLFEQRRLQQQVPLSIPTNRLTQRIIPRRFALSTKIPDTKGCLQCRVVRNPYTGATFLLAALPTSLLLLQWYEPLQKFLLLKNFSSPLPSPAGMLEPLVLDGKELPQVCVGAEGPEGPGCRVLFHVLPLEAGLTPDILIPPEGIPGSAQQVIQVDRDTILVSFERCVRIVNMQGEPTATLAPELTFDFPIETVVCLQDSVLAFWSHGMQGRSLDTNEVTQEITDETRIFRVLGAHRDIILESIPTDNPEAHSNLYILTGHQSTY
MLK1/MAP3K9, sequence (P80192 whole entry): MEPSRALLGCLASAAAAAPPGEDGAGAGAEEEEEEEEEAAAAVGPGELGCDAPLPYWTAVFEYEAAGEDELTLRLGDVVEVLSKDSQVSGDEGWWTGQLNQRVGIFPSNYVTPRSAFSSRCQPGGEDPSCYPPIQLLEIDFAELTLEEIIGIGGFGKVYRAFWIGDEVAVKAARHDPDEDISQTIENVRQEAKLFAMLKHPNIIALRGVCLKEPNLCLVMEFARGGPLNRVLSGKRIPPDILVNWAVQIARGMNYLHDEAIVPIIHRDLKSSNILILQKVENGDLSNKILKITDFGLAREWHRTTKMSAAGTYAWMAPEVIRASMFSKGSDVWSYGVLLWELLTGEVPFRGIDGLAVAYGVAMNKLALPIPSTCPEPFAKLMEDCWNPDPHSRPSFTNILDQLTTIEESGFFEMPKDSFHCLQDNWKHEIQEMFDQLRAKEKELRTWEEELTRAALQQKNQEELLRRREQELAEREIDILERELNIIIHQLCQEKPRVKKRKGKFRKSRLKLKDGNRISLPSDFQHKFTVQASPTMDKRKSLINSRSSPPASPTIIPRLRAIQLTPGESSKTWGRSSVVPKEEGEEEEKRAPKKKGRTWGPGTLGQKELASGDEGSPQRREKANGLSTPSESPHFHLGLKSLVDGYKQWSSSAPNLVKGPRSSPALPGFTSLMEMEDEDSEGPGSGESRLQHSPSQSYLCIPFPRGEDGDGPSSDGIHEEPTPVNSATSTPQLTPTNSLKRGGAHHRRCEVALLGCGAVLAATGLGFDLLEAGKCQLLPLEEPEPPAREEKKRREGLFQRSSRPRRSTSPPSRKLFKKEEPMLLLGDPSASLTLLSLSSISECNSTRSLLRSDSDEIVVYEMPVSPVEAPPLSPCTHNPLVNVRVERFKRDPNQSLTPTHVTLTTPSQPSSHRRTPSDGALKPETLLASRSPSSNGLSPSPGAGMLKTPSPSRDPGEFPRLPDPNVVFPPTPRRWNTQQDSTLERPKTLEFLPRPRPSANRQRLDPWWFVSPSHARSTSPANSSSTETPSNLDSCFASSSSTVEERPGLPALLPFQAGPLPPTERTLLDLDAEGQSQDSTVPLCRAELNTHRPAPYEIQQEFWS
GLK/MAP4K3, sequence (Q8IVH8 whole entry): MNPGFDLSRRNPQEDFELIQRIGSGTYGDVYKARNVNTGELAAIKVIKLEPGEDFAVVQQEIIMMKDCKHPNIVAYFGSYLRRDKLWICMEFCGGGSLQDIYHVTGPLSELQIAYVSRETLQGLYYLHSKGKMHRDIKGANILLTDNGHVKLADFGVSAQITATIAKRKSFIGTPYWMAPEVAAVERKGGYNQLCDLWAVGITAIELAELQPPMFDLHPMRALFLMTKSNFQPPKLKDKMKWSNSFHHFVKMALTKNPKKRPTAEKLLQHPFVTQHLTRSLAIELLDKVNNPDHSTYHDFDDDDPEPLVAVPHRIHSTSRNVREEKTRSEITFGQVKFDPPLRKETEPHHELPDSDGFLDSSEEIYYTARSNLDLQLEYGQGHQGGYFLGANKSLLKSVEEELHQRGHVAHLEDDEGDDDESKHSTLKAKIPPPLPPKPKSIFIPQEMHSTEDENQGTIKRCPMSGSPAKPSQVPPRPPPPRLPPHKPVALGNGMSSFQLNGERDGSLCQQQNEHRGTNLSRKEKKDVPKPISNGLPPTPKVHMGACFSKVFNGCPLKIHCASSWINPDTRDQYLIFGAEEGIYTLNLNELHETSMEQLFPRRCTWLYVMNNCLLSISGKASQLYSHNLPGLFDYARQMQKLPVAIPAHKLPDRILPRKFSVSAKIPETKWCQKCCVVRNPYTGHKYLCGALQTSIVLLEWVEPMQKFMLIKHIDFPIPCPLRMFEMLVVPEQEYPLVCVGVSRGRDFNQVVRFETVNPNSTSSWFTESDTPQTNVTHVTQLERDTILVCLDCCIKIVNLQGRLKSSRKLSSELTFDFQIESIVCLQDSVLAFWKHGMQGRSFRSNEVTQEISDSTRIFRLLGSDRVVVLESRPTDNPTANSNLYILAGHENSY
GSK3β, sequence (P49841 whole entry, species assumed): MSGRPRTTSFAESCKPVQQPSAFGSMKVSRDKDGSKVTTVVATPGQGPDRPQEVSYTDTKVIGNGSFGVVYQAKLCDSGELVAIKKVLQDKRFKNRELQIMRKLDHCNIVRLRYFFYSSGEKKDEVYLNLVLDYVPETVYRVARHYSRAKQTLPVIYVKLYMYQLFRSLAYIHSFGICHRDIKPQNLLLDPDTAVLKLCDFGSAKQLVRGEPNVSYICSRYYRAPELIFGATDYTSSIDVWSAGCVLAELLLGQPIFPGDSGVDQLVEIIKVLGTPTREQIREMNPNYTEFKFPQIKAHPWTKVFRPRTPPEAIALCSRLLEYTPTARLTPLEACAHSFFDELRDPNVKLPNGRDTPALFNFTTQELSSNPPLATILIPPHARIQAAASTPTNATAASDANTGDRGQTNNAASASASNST

Compound: O=c1[nH]cnc2c1c(-c1ccc(OCC3(CO)COC3)cc1)cn2-c1ccccc1 [Ex-54]
- Protection in human iPSC-derived ventricular cardiomyocytes, H202, efficacy relative to Ex-58 ([1]; H2O2 as death trigger): (0.9)
- EC50 [1, 8]: 469 nM
- EC50 ([1]; read-out: EC50, protection of human cardiomyocytes): < 1000 nM
- IC50 ([2]; read-out: MAP4K4, IC50): 4 nM
- resistance to degradation in hepatocyte microsomes (Heps) relative to Ex-58 [3]: superior
- Human Heps [3]: 5
- Mouse Heps [3]: 25
- Pig Heps [3]: 6
- Rat Heps [3]: 3
- Cyp Inhibition 2C9 (Cyp 2C9): (2C9 8 μM)
- Protection in H9c2 cardiomyocytes, efficacy relative to Ex-58 (H9c2 cardiomyocytes): (0.3)
- EC50 (H9c2 cardiomyocytes): 199 nM
- Cyp Inhibition (Cyp): >10 µM
- plasma protein binding (PPB) relative to Ex-58 [4]: superior
- fraction unbound [4, 9]: 0.03
- fraction unbound [4, 10]: 0.03
- In vivo efficacy (infarct size/area at risk), reduction [5]: 53% reduction
- infarct size in mice (in words) ([5]; mouse, in vivo): Reduction of infarct size
- solubility (Formulated solubility): 300 µg/mL (≈ 744 µM)

Compound: COCCOc1ccc(-c2cn(-c3ccccc3)c3nc[nH]c(=O)c23)cc1 [Ex-58, 5-[4-(2-Methoxy-ethoxy)-phenyl]-7-phenyl-3,7-dihydro-pyrrolo[2,3-d]pyrimidin-4-one]
- improvement of free plasma concentration over the earlier compound ([6]; 50 mg kg-1 oral dose, versus F1386-0303): > 80 fold
- concentration at 1 h ([6]; mouse, plasma, po, 50 mg kg-1): 334 nM
- concentration at 10 h ([6]; mouse, plasma, po, 50 mg kg-1): 8 nM
- protection of human cardiomyocytes (in words) ([1]; CorV.4U cells, H2O2 and menadione, both viability assays): Protection of human cardiomyocytes was substantiated
- Protection in human iPSC-derived ventricular cardiomyocytes, H202, efficacy relative to Ex-58 ([1]; H2O2 as death trigger): (1)
- EC50 [1, 8]: 403 nM
- greater potency than F1386-0303 [2]: 10 fold
- pIC50 MAP4K4 [2]: 8.55
- IC50 ([2]; ATP at Km (10 μM), 0.5 nM kinase domain, 2 h, read-out: MAP4K4): ≤ 100 nM
- selectivity for MAP4K4 (in words) ([2]; compared to F1386-303, 13 other protein kinases): highly selective
- IC50 ([2]; read-out: MAP4K4, IC50): 3 nM
- Human Heps [3]: ≤10
- Mouse Heps [3]: 85
- Pig Heps [3]: 8
- Rat Heps [3]: 10
- fold selectivity for MAP4K4 over KHS/MAP4K5 (KHS/MAP4K5): (153) fold
- pIC50 KHS/MAP4K5 (KHS/MAP4K5): 6.36
- AUCinf [7]: 63733
- fold selectivity for MAP4K4 over VEGFR (VEGFR): (675) fold
- pIC50 VEGFR (VEGFR): 5.72
- fold selectivity for MAP4K4 over MLK1/MAP3K9 (MLK1/MAP3K9): (23) fold
- pIC50 MLK1/MAP3K9 (MLK1/MAP3K9): 7.19
- fold selectivity for MAP4K4 over NUAK (NUAK): (47) fold
- pIC50 NUAK (NUAK): 6.88
- pIC50 TNIK/MAP4K7 (TNIK/MAP4K7): 7.96
- pIC50 MINK1/MAP4K6 (MINK1/MAP4K6): 8.18
- Protection in H9c2 cardiomyocytes, efficacy relative to Ex-58 (H9c2 cardiomyocytes): (1)
- EC50 (H9c2 cardiomyocytes): 350 nM
- Cyp Inhibition (Cyp): >10 µM
- fold selectivity for MAP4K4 over ABL1 (ABL1): (560) fold
- pIC50 ABL1 (ABL1): 5.80
- fold selectivity for MAP4K4 over FLT3 (FLT3): (1148) fold
- pIC50 FLT3 (FLT3): 5.31
- fold selectivity for MAP4K4 over Aurora B (Aurora B): (560) fold
- pIC50 Aurora B (Aurora B): 5.49
- fold selectivity for MAP4K4 over GSK3β (GSK3β): (7762) fold
- pIC50 GSK3β (GSK3β): 4.66
- fold selectivity for MAP4K4 over MLK3/MAP3K11 (MLK3/MAP3K11): (36) fold
- pIC50 MLK3/MAP3K11 (MLK3/MAP3K11): 6.99
- fraction unbound [4, 9]: 0.01
- fraction unbound [4, 10]: 0.02
- cultures with persisting spontaneous calcium oscillations (hiPSC-CMs; 10 μM compound, 50 μM menadione, 21 of 24 cultures): 87.5%
- adverse effect on functional parameters (hiPSC-CMs; hiPSC-CMs, mitochondrial function and calcium cycling): no adverse effect
- extracellular acidification rate (glycolytic function) (CorV.4U hiPSC-CMs): largely rescued
- fold selectivity for MAP4K4 over GLK/MAP4K3 (GLK/MAP4K3): (3981) fold
- pIC50 GLK/MAP4K3 (GLK/MAP4K3): 4.95
- fold selectivity for MAP4K4 over GCK/MAP4K2 (GCK/MAP4K2): (112) fold
- pIC50 GCK/MAP4K2 (GCK/MAP4K2): 6.50
- reduction in infarct size as a proportion of the area at ischemic risk ([5]; begun 20 min prior to ischemia): more than 50%
- reduction in infarct size as a proportion of the area at ischemic risk ([5]; begun 1 h after reperfusion injury): > 60%
- In vivo efficacy (infarct size/area at risk), reduction [5]: 65% reduction
- suppression of cardiomyocyte apoptosis (TUNEL) in the jeopardized adjacent myocardium ([5]; post-injury study): 52%
- suppression of cardiomyocyte apoptosis (TUNEL) within the infarct ([5]; post-injury study): 39%
